Results from PubChem BioAssay AID1199 (EPA DSSTox, 2008).
The source made the active and inactive calls.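 Rule for the calls: active = a tumour-causing dose and a tumour site recorded for mice in at least one sex group; inconclusive = only government mouse studies exist and were judged inadequate; inactive = mouse studies exist but none gave tumours.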

Tested on: mouse carcinogenicity bioassay, TD50 from CPDB
Assay: DSSTox (CPDBAS) Carcinogenic Potency Database Summary Mouse Bioassay Results
Details: for outcome: TD50_Mouse_Note: no positive results
Summary of the method: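 Values are TD50 carcinogenic potencies from mouse chronic bioassays, taking the most positive result for each sex-species. Sources are published literature and NCI/NTP studies; target sites reflect author-reported positive findings.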

[1] = TargetSites_Mouse_Female: no positive results
[2] = TD50_Mouse_Note: TD50 is harmonic mean of more than one positive test, TargetSites_Mouse_Female: mammary gland

| Structure (SMILES) | outcome [1] | further results |
| --- | --- | --- |
| O.O.O.O.O.O.O=S(=O)([O-])[O-].[Ni+2] | inactive; no positive results | – |
| NC(=O)CCCCn1ccc(NC(N)=NCC(F)(F)F)n1 | – | Potency (TD50_Mouse_Note: TD50 is harmonic mean of more than one positive test, TargetSites_Mouse_Female: stomach): 1.84 mmol/kg/day |
| Nc1ccccc1-c1ccccc1 | – | Potency (TargetSites_Mouse_Female: vascular system): 5.45 mmol/kg/day |
| Nc1ccc(S(=O)(=O)c2ccc(N)cc2)cc1 | inactive; no positive results | – |
| COc1cc2c(c3oc4cccc(O)c4c(=O)c13)C1C=COC1O2 (stereo not drawn) | – | Potency (TD50_Mouse_Note: TD50 is harmonic mean of more than one positive test, TargetSites_Mouse_Female: vascular system): 0.0028 mmol/kg/day |
| COc1ccc(C)cc1N | – | Potency (TD50_Mouse_Note: TD50 is harmonic mean of more than one positive test, TargetSites_Mouse_Female: liver, urinary bladder): 0.396 mmol/kg/day |
| O=[O+][O-] | – | Potency (TD50_Mouse_Note: TD50 is harmonic mean of more than one positive test, TargetSites_Mouse_Female: lung): 0.0392 mmol/kg/day |
| CCN=c1cc2oc3cc(NCC)c(C)cc3c(-c3ccccc3C(=O)OCC)c-2cc1C | inactive; no positive results | – |
| O[C@H]([C@H](O)[C@@H](O)CBr)[C@H](O)CBr | – | Potency (TD50_Mouse_Note: positive test results only by intraperitoneal or intravenous injection, TD50 is harmonic mean of more than one positive, TargetSites_Mouse_Female: hematopoietic system, lung): 0.0357 mmol/kg/day |
| NC(=O)c1ccncc1 | inactive; no positive results | – |
| CCn1nc(C)c2c1C(c1ccccc1)=NCC(=O)N2 | – | Potency (TD50_Mouse_Note: TD50 is harmonic mean of more than one positive test, TargetSites_Mouse_Female: liver): 0.425 mmol/kg/day |
| Cc1cc(O)cc(C)c1N(C)C | inactive; no positive results | – |
| O=S1OCCO1 | inactive | – |
| Clc1ccc(C(c2ccc(Cl)cc2)C(Cl)(Cl)Cl)cc1 | – | Potency (TD50_Mouse_Note: TD50 is harmonic mean of more than one positive test, greater than ten-fold variation among TD50 values for positive res, TargetSites_Mouse_Female: hematopoietic system, liver, lung): 0.0361 mmol/kg/day |
| CNC(=O)O/N=C(\SC)C(=O)N(C)C | inactive; no positive results | – |
| CC(C)(C)NC[C@H](O)COc1cccc2c1CCCC2=O | inactive; no positive results | – |
| c1ccc2n[nH]nc2c1 | inactive; no positive results | – |
| CC(N)=O | – | Potency [1]: 51 mmol/kg/day |
| FC(F)OC(F)(F)C(F)Cl (stereo not drawn) | inactive; no positive results | – |
| C[C@H]([C@H](O)CCC(C)(C)O)[C@H]1CC[C@@]2(O)C3=CC(=O)[C@@H]4C[C@@H](O)[C@@H](O)C[C@]4(C)[C@H]3CC[C@]12C | – | Potency [2]: 7.7e-05 mmol/kg/day |
| Nc1ccc(Sc2ccc(N)cc2)cc1 | – | Potency (TD50_Mouse_Note: TD50 is harmonic mean of more than one positive test, TargetSites_Mouse_Female: liver, thyroid gland): 0.153 mmol/kg/day |
| [Na+] | inactive; no positive results | – |
| CC(COc1ccccc1)N(CCCl)Cc1ccccc1 (stereo not drawn) | – | Potency (TD50_Mouse_Note: positive test results only by intraperitoneal or intravenous injection, TD50 is harmonic mean of more than one positive, TargetSites_Mouse_Female: peritoneal cavity): 0.0158 mmol/kg/day |
| CC(Cl)(Cl)Cl | inactive; no positive results | – |

| Structure (SMILES) | outcome [1] | further results |
| --- | --- | --- |
| CN(C)CCO | inactive | – |
| CCN(CC)C(=S)SSC(=S)N(CC)CC | inactive; no positive results | – |
| c1ccc2c(c1)[nH]c1ccccc12 | – | Potency (TD50_Mouse_Note: TD50 is harmonic mean of more than one positive test, TargetSites_Mouse_Female: liver, stomach): 0.981 mmol/kg/day |
| CCn1cc(C(=O)O)c(=O)c2cc3c(cc21)OCO3 | inactive; no positive results | – |
| C=CCCl | inactive; no positive results | – |
| CN(C)C(=S)SC(=S)N(C)C | inactive; no positive results | – |
| O1[As]2O[As]3O[As]1O[As](O2)O3 | inactive; no positive results | – |
| COC1=CC(=O)C[C@@H](C)[C@]12Oc1c(Cl)c(OC)cc(OC)c1C2=O | – | Potency [2]: 0.0391 mmol/kg/day |
| Cc1nc(N)cc2[nH]c3ccccc3c12 | – | Potency (TD50_Mouse_Note: TD50 is harmonic mean of more than one positive test, greater than ten-fold variation among TD50 values for positive res, TargetSites_Mouse_Female: liver): 0.049 mmol/kg/day |
| CC[C@H](OC(C)=O)C(C[C@H](C)N(C)C)(c1ccccc1)c1ccccc1 | inactive; no positive results | – |
| NS(=O)(=O)c1cc(C(=O)O)c(NCc2ccco2)cc1Cl | – | Potency (TargetSites_Mouse_Female: mammary gland): 2.21 mmol/kg/day |
| Cn1cc(OCC(O)CNC(C)(C)C)c2ccccc2c1=O (stereo not drawn) | inactive; no positive results | – |
| CN1C(=O)CN=C(c2ccccc2)c2cc(Cl)ccc21 | inactive; no positive results | – |
| COP(=S)(OC)Oc1ccc(SC)c(C)c1 | inactive; no positive results | – |
| Nc1ccc(N=Nc2ccc(-c3ccc(N=Nc4c(S(=O)(=O)O)cc5cc(S(=O)(=O)O)c(N=Nc6ccccc6)c(O)c5c4N)cc3)cc2)c(N)c1 | – | Potency (TargetSites_Mouse_BothSexes: liver, mammary gland): 0.0916 mmol/kg/day |
| Nc1ccc(-c2ccc(N)c(Cl)c2)cc1Cl | – | Potency (TD50_Mouse_Note: TD50 value is overestimated as upper 99% confidence limit from study with 100% tumor incidence but no lifetable, harmoni): 0.0377 mmol/kg/day |
| O=P(OCCCl)(OCCCl)OCCCl | – | Potency (TD50_Mouse_Note: TD50 is harmonic mean of more than one positive test, TargetSites_Mouse_Female: hematopoietic system, stomach): 3.39 mmol/kg/day |
| Oc1ccc(-c2ccccc2)cc1 | inactive; no positive results | – |
| O.O.O.O.O=C([O-])CC(O)(CC(=O)[O-])C(=O)[O-].[Fe+3] | inactive; no positive results | – |
| ClC(Cl)=C(Cl)c1c(Cl)c(Cl)c(Cl)c(Cl)c1Cl | – | outcome: inactive; no positive results |
| CCn1cc(C(=O)O)c(=O)c2ccc(C)nc21 | inactive; no positive results | – |
| O=[Se]=O | – | outcome: inactive |
| COc1cc(-c2ccc(N)c(OC)c2)ccc1N | – | Potency (TD50_Mouse_Note: no positive results are statistically significant, TargetSites_Mouse_Female: no positive results): 0.233 mmol/kg/day |
| c1ccc2[nH]ccc2c1 | inactive | – |
